Measured values: patent publication US9221875B2, “Amphiphilic peptides for treatment of keratitis” (Agency for Science, Technology and Research, priority 2013, dated 2015)
≈ marks a conversion by molar mass, not a printed value. Like-named read-outs stand apart in the source and are kept apart here. Marks after values point to notes of the source that are not given here. Square brackets hold non-standard residues; d marks the D form. Peptide text beside a SMILES is read from it.

Legend:
C. albicans keratitis = experiment: Contact lens-associated C. albicans keratitis mouse model
S. aureus [1] = conditions: 18 h
P. aeruginosa [2] = conditions: 18 h
E. coli [3] = conditions: 18 h
S. epidermidis [4] = conditions: 18 h
C. albicans [5] = conditions: 42 h
[6] = system: 5 microorganisms tested (S. epidermidis, S. aureus, E. coli, P. aeruginosa, C. albicans); experiment: Mean MIC over the panel and selectivity index (Example 1); type: cell-based
Procedure: Red blood cells suspension incubated with PBS was used as negative control.

mice = conditions: reported values; cited from earlier work
E. coli [7] = conditions: 18 h; remark: listed apart in the source
C. albicans [8] = system: C. albicans
[9] = system: 5 microorganisms tested (S. epidermidis, S. aureus, E. coli, P. aeruginosa, C. albicans); experiment: Mean MIC over the panel and selectivity index (Example 2)
S. aureus [10] = conditions: 18 h; remark: listed apart in the source
P. aeruginosa [11] = conditions: 18 h; remark: listed apart in the source
rabbit red blood cells = type: cell-based; conditions: red cells of rabbit, 1 h
S. epidermidis [12] = conditions: 18 h; remark: listed apart in the source
E. coli [13] = type: cell-based, Escherichia coli
[14] = system: clinically isolated Mycobacterium tuberculosis
[15] = topical eye drops, peptides 3000 mg/L, amphotericin B 1000 mg/L

Molecule	MIC S. aureus (S. aureus [1]) [µg/mL]	MIC P. aeruginosa (P. aeruginosa [2]) [µg/mL]	MIC E. coli (E. coli [3]) [µg/mL]	MIC S. epidermidis (S. epidermidis [4]) [µg/mL]	GM, geometric mean of MIC values for the 5 microorganisms tested [6] [µg/mL]	MIC C. albicans (C. albicans [5]) [µg/mL]	MIC E. coli (E. coli [7]) [µg/mL]	MIC C. albicans (C. albicans [8]) [µg/mL]	MIC S. aureus (S. aureus [10]) [µg/mL]	MIC P aeruginosa (P. aeruginosa [11]) [µg/mL]	further results
C[C@@H]1[C@H](O)[C@@H](C)/C=C/C=C/C=C/C=C/C=C/C=C/C=C/[C@H](O[C@@H]2O[C@H](C)[C@@H](O)[C@H](N)[C@@H]2O)C[C@@H]2O[C@](O)(C[C@@H](O)C[C@@H](O)[C@H](O)CC[C@@H](O)C[C@@H](O)CC(=O)O[C@H]1C)C[C@H](O)[C@H]2C(=O)O [amphotericin B, reference compound]	–	–	–	–	–	–	–	–	–	–	fungal cells eradicated from the biofilms compared to the untreated control group (C. albicans keratitis; C. albicans counts in mice cornea, agar plating): ~90%; depth of hyphal invasion into the cornea, PAS histology (C. albicans keratitis; [15]): reduced the maximal depth of hyphal invasion; resolution of the keratitis infection (eye appearance) (C. albicans keratitis; [15]): significant resolution of the keratitis infection; clinical scores of mice corneas (slit lamp) (C. albicans keratitis; topical eye drops, peptides 3000 mg/L, amphotericin B 1000 mg/L, P<0.01): significantly lower than that in the control group
Polymyxin B [reference compound]	125	2.0	2.0	15.6	41.4	–	–	–	–	–	MIC C. albicans (C. albicans [5]; room temperature): 62.5 µg/mL; LD50 reported for comparator (mice): 5.4 mg/kg
CC(C)[C@H](N)C(=O)N[C@@H](CCCNC(=N)N)C(=O)N[C@H](C(=O)N[C@@H](CCCCN)C(=O)N[C@H](C(=O)N[C@@H](CCCNC(=N)N)C(=O)N[C@H](C(=O)N[C@@H](CCCCN)C(N)=O)C(C)C)C(C)C)C(C)C [(VRVK)2-NH2] (H-VRVKVRVK-NH2; N-terminus assumed)	>500	>500	250 (≈ 255 µM)	62.5 (≈ 63.6 µM)	–	15.6 (≈ 15.9 µM)	–	–	–	–	–
CC[C@@H](C)[C@@H](N)C(=O)N[C@H](CCCNC(=N)N)C(=O)N[C@@H](C(=O)N[C@H](CCCCN)C(=O)N[C@@H](C(=O)N[C@H](CCCNC(=N)N)C(N)=O)[C@H](C)CC)[C@H](C)CC [IK6-all D, irikir-NH2] (H-[dI][dR][dI][dK][dI][dR]-NH2; N-terminus assumed)	–	–	–	–	–	–	62.5 (≈ 78.4 µM)	15.6 (≈ 19.6 µM)	250 (≈ 314 µM)	125 (≈ 157 µM)	GM, geometric mean of MIC values for the 5 microorganisms tested [9]: 113.3 µg/mL
CC[C@@H](C)[C@@H](N)C(=O)N[C@@H](C(=O)N[C@H](CCCNC(=N)N)C(=O)N[C@H](CCCCN)C(=O)N[C@@H](C(=O)N[C@@H](C(=O)N[C@H](CCCNC(=N)N)C(=O)N[C@H](CCCCN)C(N)=O)[C@H](C)CC)[C@H](C)CC)[C@H](C)CC [Control-all D, iirkiirk-NH2] (H-[dI][dI][dR][dK][dI][dI][dR][dK]-NH2; N-terminus assumed)	–	–	–	–	–	–	>500	250 (≈ 241 µM)	>500	>500	HC10, haemolysis concentration 10%: lowest peptide concentration that induces ≧10% haemolysis (rabbit red blood cells): >2000 mg/L; MIC S. epidermidis (S. epidermidis [12]): >500 µg/mL
gentamicin sulfate	–	–	–	–	–	–	–	–	–	–	MICn/MIC0 (E. coli [13]; passage 2): 2; MICn/MIC0 (E. coli [13]; passage 6): 4
CC[C@H](C)[C@H](N)C(=O)N[C@@H](CCCNC(=N)N)C(=O)N[C@H](C(=O)N[C@@H](CCCCN)C(=O)N[C@H](C(=O)N[C@@H](CCCNC(=N)N)C(=O)N[C@H](C(=O)N[C@@H](CCCCN)C(N)=O)C(C)C)[C@@H](C)CC)C(C)C [(IRVK)2-NH2] (H-IRVKIRVK-NH2; N-terminus assumed)	250 (≈ 247 µM)	62.5 (≈ 61.9 µM)	62.5 (≈ 61.9 µM)	7.8 (≈ 7.72 µM)	78.1	7.8 (≈ 7.72 µM)	–	–	–	–	–
CC[C@H](C)[C@H](N)C(=O)N[C@@H](CCCNC(=N)N)C(=O)N[C@H](C(=O)N[C@@H](CCCNC(=N)N)C(=O)N[C@H](C(=O)N[C@@H](CCCNC(=N)N)C(=O)N[C@H](C(=O)N[C@@H](CCCNC(=N)N)C(N)=O)[C@@H](C)CC)[C@@H](C)CC)[C@@H](C)CC [(IRIR)2-NH2] (H-IRIRIRIR-NH2; N-terminus assumed)	31.3 (≈ 28.6 µM)	7.8 (≈ 7.13 µM)	7.8 (≈ 7.13 µM)	3.9 (≈ 3.56 µM)	13.3	15.6 (≈ 14.3 µM)	–	–	–	–	–
CC[C@@H](C)[C@@H](N)C(=O)N[C@H](CCCNC(=N)N)C(=O)N[C@@H](C(=O)N[C@H](CCCCN)C(=O)N[C@@H](C(=O)N[C@H](CCCNC(=N)N)C(=O)N[C@@H](C(=O)N[C@H](CCCCN)C(=O)N[C@@H](C(=O)N[C@H](CCCNC(=N)N)C(=O)N[C@@H](C(=O)N[C@H](CCCCN)C(N)=O)C(C)C)[C@H](C)CC)C(C)C)[C@H](C)CC)C(C)C [IK12-all D, irvkirvkirvk-NH2] (H-[dI][dR][dV][dK][dI][dR][dV][dK][dI][dR][dV][dK]-NH2; N-terminus assumed)	–	–	–	–	–	–	7.8 (≈ 5.18 µM)	31.3 (≈ 20.8 µM)	7.8 (≈ 5.18 µM)	15.6 (≈ 10.4 µM)	GM, geometric mean of MIC values for the 5 microorganisms tested [9]: 12.7 µg/mL; fold reduction in MIC values compared with the L-enantiomer ([9]; against the various bacteria): 2-4 fold; HC10, haemolysis concentration 10%: lowest peptide concentration that induces ≧10% haemolysis (rabbit red blood cells): >125^e) mg L^−1; MIC S. epidermidis (S. epidermidis [12]): 1.0 µg/mL (≈ 0.664 µM)
N=C(N)NCCC[C@H](NC(=O)[C@H](Cc1c[nH]c2ccccc12)NC(=O)[C@H](CCCCN)NC(=O)[C@H](Cc1c[nH]c2ccccc12)NC(=O)[C@H](CCCNC(=N)N)NC(=O)[C@@H](N)Cc1c[nH]c2ccccc12)C(=O)N[C@@H](Cc1c[nH]c2ccccc12)C(=O)N[C@@H](CCCCN)C(N)=O [(WRWK)2-NH2] (H-WRWKWRWK-NH2; N-terminus assumed)	62.5 (≈ 47 µM)	125 (≈ 93.9 µM)	15.6 (≈ 11.7 µM)	7.8 (≈ 5.86 µM)	92.2	250 (≈ 188 µM)	–	–	–	–	–
CC[C@H](C)[C@H](N)C(=O)N[C@@H](CCCNC(=N)N)C(=O)N[C@H](C(=O)N[C@H](CCCCN)C(=O)N[C@H](C(=O)N[C@H](CCCNC(=N)N)C(=O)N[C@H](C(=O)N[C@@H](CCCCN)C(N)=O)[C@@H](C)CC)[C@@H](C)CC)[C@@H](C)CC [IK8-2D, IRIkIrIK-NH2] (H-IRI[dK]I[dR]IK-NH2; N-terminus assumed)	–	–	–	–	–	–	15.6 (≈ 15 µM)	3.9 (≈ 3.76 µM)	31.3 (≈ 30.1 µM)	7.8 (≈ 7.51 µM)	MIC M. tuberculosis ([14]; strain number 1173): 62.5 µg/mL (≈ 60.2 µM); MIC M. tuberculosis ([14]; strain number 1177): 62.5 µg/mL (≈ 60.2 µM); MIC M. tuberculosis ([14]; strain number 1178): 62.5 µg/mL (≈ 60.2 µM); MIC M. tuberculosis ([14]; strain number 1179): 125 µg/mL (≈ 120 µM); GM, geometric mean of MIC values for the 5 microorganisms tested [9]: 12.5 µg/mL; HC10, haemolysis concentration 10%: lowest peptide concentration that induces ≧10% haemolysis (rabbit red blood cells): 1600 mg/L; MIC S. epidermidis (S. epidermidis [12]): 3.9 µg/mL (≈ 3.76 µM)
N=C(N)NCCC[C@H](NC(=O)[C@H](Cc1ccccc1)NC(=O)[C@H](CCCCN)NC(=O)[C@H](Cc1ccccc1)NC(=O)[C@H](CCCNC(=N)N)NC(=O)[C@@H](N)Cc1ccccc1)C(=O)N[C@@H](Cc1ccccc1)C(=O)N[C@@H](CCCCN)C(N)=O [(FRFK)2-NH2] (H-FRFKFRFK-NH2; N-terminus assumed)	250 (≈ 213 µM)	62.5 (≈ 53.2 µM)	15.6 (≈ 13.3 µM)	7.8 (≈ 6.64 µM)	79.7	62.5 (≈ 53.2 µM)	–	–	–	–	–
gramicidin	–	–	–	–	–	–	–	–	–	–	LD50 reported for comparator (mice): 1.5 mg/kg
